This note sets out measurements from patent US20190365700A1, “Methods for Isolating Tumor-Specific Immune Cells from a Subject for Adoptive Cell Therapy and Cancer Vaccines” (CRITITECH, INC., priority 2018, published 2019).

In brackets after ≈: the same amount, converted by molar mass. Several values for one entry are separate records, joined by “and”; a condition that tells them apart may be missing. Equal values may be shown once. Marks after values point to notes of the source that are not given here.

Data set [1] relates to human renal cell adenocarcinoma (786-O cell line). In words: Renal cell adenocarcinoma xenograft: histology and IHC (viable carcinoma size, necrosis, lymphohistiocytic infiltrate). It counts as in vivo, Sprague-Dawley Rag2; Il2rg null (SRG®) rat. The text has this:
Microscopic Examination: Tissues fixed with 10% NBF were embedded in paraffin. Each tumor was cut into 2-3 pieces and embedded and sectioned together.

The test system of data set [2] is UM-UC-3 bladder cancer cell line (ATCC-CRL-1749) tumors. Description: Human bladder cancer (UM-UC-3) mouse xenograft study: tumor volume, body weight, observations. It counts as in vivo, Hsd:Athymic Nude-Foxnlnu nude mice. Here is the method: Tumor volume was determined with calipers. […] Animals were weighed 2×/week.
At day 18 after tumor implant, when average tumor size was between 50-325 mm^3, animals were sorted into five groups with equal average tumor sizes and were treated as shown in Table 25 below.
The second treatments (2nd cycle) occurred 7 days following first treatment (1st cycle) and third treatments (3rd cycle) occurred 14 days following the first treatment. The docetaxel solution IV was administered via the tail vein.
Vehicle (Control): Diluted 1 ml of the 1% Polysorbate 80/8% Ethanol in normal saline (0.9% Sodium Chloride for Injection) reconstitution solution with 1.5 mL of normal saline (0.9% Sodium Chloride for Injection, USP). […] Vigorously hand shook the vial with inversions for 1 minute. […] Allowed the suspension to sit undisturbed for at least 5 minutes to reduce entrapped air and foam. […] Vortexed to mix.
On the technique in general: A xenograft is tissue or cells of one species grown in another, often human tumour cells in immunodeficient mice.

Data set [3] has as its system Renca syngeneic renal carcinoma. In words: Renca syngeneic xenograft study: secondary tumor growth (groups 8-10). It counts as in vivo, female BALB/c mice. Particulars: IV docetaxel doses. As for the experimental part: The schedule in Table 39 was followed.
Cell Injection Volume: 0.1 mL/mouse. Age at Start Date: 8 to 12 weeks. […] Body Weight: 5/2 then tiwk to end. Caliper Measurement: tiwk to end. Double caliper measurements were performed for Groups 8-10. […] The group was not euthanized and recovery was allowed.
Endpoints: Groups 1-7: Endpoint TGI. Animals were monitored as a group.

Data set [4] concerns UM-UC-3 bladder cancer cell line (ATCC-CRL-1749) tumors. Description: Bladder cancer xenograft: histology and IHC (viable carcinoma size, necrosis, macrophage infiltrate, TLS, necropsy volume). Type of data set: in vivo, Hsd:Athymic Nude-Foxnlnu nude mice.
The subject of data set [5] is immune cells (CD45+, CD4+, CD8+, Treg, MDSC, M1 and M2 macrophages) in blood. Description: Renca study: flow cytometry of immune cells in blood. Type of data set: in vivo, female BALB/c mice. Particulars: IV Docetaxel, individual animals. As for the experimental part:
Blood Collection: Collected full volume blood by terminal cardiac puncture under isoflurane anesthesia. Processed blood for: Whole Blood: anti-coagulant—K2EDTA, preservation—Cooled 4° C., shipping condition—4° C. (wet ice). Retained at CRL-NC for flow cytometry. See Flow panel in Table 40 below.
(§1) Peripheral blood and tumor tissue were collected for analysis via flow cytometry. Cell types analyzed included T-Cells: CD4+, CD8+(Tumor Suppression); Treg (Tumor Promotion); M1 Macrophages (Tumor Suppression); M2 Macrophages (Tumor Promotion); and […].
(In flow cytometry, cells or beads pass a laser one at a time.)

The test system of data set [6] is Renca syngeneic renal carcinoma. The text has this:
Animals were monitored as a group. […] When the endpoint was reached, all the animals were euthanized. […]

Data set [7] has as its system immune cells (CD45+, CD4+, CD8+, Treg, MDSC, M1 and M2 macrophages) in tumor tissue. In words: Renca study: flow cytometry of immune cells in tumor tissue. It counts as in vivo, female BALB/c mice. Particulars: individual animals, IV docetaxel group. As for the experimental part:
Organ Collection: Tumor (divide into 2 parts). […] Sent to laboratory for IHC staining. Part 2: preservation—processed to single cell suspension, shipping condition—4° C. (wet ice). Retained at CRL-NC for flow cytometry. See Flow panel in Table 40 below. Tumor preservation for early euthanasia in Groups 2-10: Excised tumor and surrounding area from the mammary fat pad area (cranial) to just past tumor (caudal). The region included the inguinal lymph node. Sectioned this sample every 4 mm from the cranial to caudal end and enclosed in separate cassettes labeled in order.
as §1

Data set [8] relates to human renal cell adenocarcinoma (786-O cell line). Description: Rat xenograft model of human renal cell adenocarcinoma: tumor volume, body weight, observations. Particulars: IV docetaxel, 3 weekly cycles. It counts as in vivo, Sprague-Dawley Rag2; Il2rg null (SRG®) rat.
Data set [9] in a line: Solubility of the active in receptor fluid. Particulars: 96 wt % PBS pH 7.4 and 4 wt % HPBCD. Type of data set: physicochemical.
Description: The receptor fluid was degassed by filtering the receptor fluid through a ZapCap CR 0.2 μm membrane while pulling vacuum. The filtered receptor fluid was stirred for an additional 20 minutes while maintaining vacuum to ensure complete degassing.
The mark [10] stands for this setting: IV Docetaxel 3 cycles, 2 animals.
The mark [11] stands for this setting: IV docetaxel 3 cycles, two cases.

Regarding `CC(=O)O[C@@]12CO[C@@H]1C[C@H](O)[C@@]1(C)C(=O)[C@H](O)C3=C(C)[C@@H](OC(=O)[C@H](O)[C@@H](NC(=O)OC(C)(C)C)c4ccccc4)C[C@@](O)([C@@H](OC(=O)c4ccccc4)[C@H]21)C3(C)C` [Doce], the “Number of animals with <5% of tissue showing necrosis” value in [1] (IV docetaxel, 2 animals) is reported as 2. The “Lymphohistiocytic infiltrate density: number of animals graded Mild” value in [1] (IV docetaxel, 2 animals, H/E and CD11b IHC) is 2.

Regarding `CC(=O)O[C@@]12CO[C@@H]1C[C@H](O)[C@@]1(C)C(=O)[C@H](O)C3=C(C)[C@@H](OC(=O)[C@H](O)[C@@H](NC(=O)OC(C)(C)C)c4ccccc4)C[C@@](O)([C@@H](OC(=O)c4ccccc4)[C@H]21)C3(C)C` [docetaxel], in data set [2] (Docetaxel IV 30 mg/kg, 3 cycles, 61 days), the tumor volumes entry was “decreased initially”. In addition, the “effectiveness by initial tumor size” value in data set [2] (Docetaxel IV 3 cycles) is given as “somewhat effective at treating small tumors, but not very effective in treating large tumors”. Further, in [2] (Docetaxel IV 3 cycles vs nDoce IT 1, 2, 3 cycles), the “initial animal weight loss” value is “generally greater”. For the same compound, in [2] (Docetaxel IV 3 cycles vs nDoce IT 3 cycles), the “signs of peripheral neuropathy” value is listed as “greater signs of peripheral neuropathy”. Besides, the “growth rate of the secondary Renca tumors” value in [3] is “did not reduce the growth rate”. Also, in data set [4] (Docetaxel Solution IV 3 cycles), the “general histological observation (H&E)” value is “many viable appearing tumor masses with some macrophage and occasional lymphocytic response along with some tumor necrosis”. Besides, in data set [4] (setting [10]), the “animals with 11-50% of tumor showing necrosis” value is 1, the “animals with 50-90% of tumor showing necrosis” value turned out to be 1 and the “animals with maximum size of viable invasive carcinoma on the slide >10 mm” value is 2*. The “Macrophage infiltrate density: number of animals graded Mild” value in data set [4] (IV Docetaxel 3 cycles, surrounding non-neoplastic tissue, H&E and CD68 IHC) is listed as 2. In addition, in data set [4] (setting [11]), the TLSs result is reported as “no TLSs present”; the “tumor masses, maximum dimension on the slide” value is 11 mm and 15 mm. Besides, in data set [5], the “CD8 (% of CD45)” value was 1.18 % of CD45 and 1.46 % of CD45 and 1.58 % of CD45 and 1.55 % of CD45 and 1.59 % of CD45 and 0.55 % of CD45 and 1.28 % of CD45 and 1.03 % of CD45 and 1.02 % of CD45 and 0.73 % of CD45; the “CD8 Count” value is 17438 and 12556 and 18524 and 4199 and 7615 and 8711 and 14504 and 9765 and 8882 and 12561; the “CD45 (% of Live)” value is 98.5 % of Live and 80.9 % of Live and 97.9 % of Live and 95.7 % of Live (2×) and 96.1 % of Live and 95.5 % of Live and 95.6 % of Live and 97 % of Live and 96.4 % of Live; the “CD45 Count” value was 1360000 (2×) and 1180000 and 1200000 and 1010000 and 348468 and 983000 and 1340000 and 1210000 and 968000. Besides, in [5], the “Conv CD4 (% of CD45)” value is 2.49 % of CD45 and 3.95 % of CD45 and 3.1 % of CD45 and 2.64 % of CD45 and 2.38 % of CD45 and 1.58 % of CD45 and 3.25 % of CD45 and 1.32 % of CD45 and 2.46 % of CD45 and 1.77 % of CD45; the “Conv CD4 Count” value was 44244 and 33048 and 31633 and 9629 and 12646 and 22949 and 34177 and 22034 and 21457 and 27808; the “Live Count” value was 1420000 and 1220000 and 1250000 and 1030000 and 350478 and 1390000 and 1010000 and 1360000 and 1260000 and 997000; the “M1 Mac (% of CD45)” value was 15.1 % of CD45 and 9.39 % of CD45 and 12.3 % of CD45 and 6.95 % of CD45 and 7.96 % of CD45 and 6.79 % of CD45 and 9.93 % of CD45 and 10.7 % of CD45 and 9.78 % of CD45 and 9.15 % of CD45. In data set [5], the “M1 Mac Count” value was 135234 and 150642 and 83214 and 124451 and 18526 and 145555 and 84022 and 122157 and 110868 and 43948; the “M2 Mac (% of CD45)” value is 0.12 % of CD45 and 0.054 % of CD45 and 0.066 % of CD45 and 0.14 % of CD45 and 0.17 % of CD45 and 0.2 % of CD45 and 0.056 % of CD45 and 0.48 % of CD45 and 0.07 % of CD45 and 0.19 % of CD45; the “M2 Mac Count” value was 765 and 815 and 1633 and 582 and 373 and 875 and 257 and 2069 and 2323 and 512; the “MDSC (% of CD45)” value was 72.7 % of CD45 and 64.8 % of CD45 and 63.3 % of CD45 and 75.9 % of CD45 and 72.8 % of CD45 and 79 % of CD45 and 73.4 % of CD45 and 72.5 % of CD45 and 77.7 % of CD45 and 76.3 % of CD45. Also, in data set [5], the “MDSC Count” value is 1000000 (2×) and 871000 and 909000 and 742000 and 255851 and 734000 (2×) and 1010000 and 925000; the “Treg (% of CD45)” value was 0.092 % of CD45 and 0.22 % of CD45 and 0.13 % of CD45 and 0.073 % of CD45 and 0.035 % of CD45 and 0.078 % of CD45 and 0.087 % of CD45 and 0.047 % of CD45 and 0.1 % of CD45 and 0.071 % of CD45; the “Treg Count” value is 1182 and 578 and 872 and 461 and 222 and 871 and 1300 and 870 and 856 and 992. For the same compound, the “histology vs vehicle control (H&E)” value in [1] (Docetaxel (IV) 3 cycles, female rat) is given as “no difference”. In addition, the “Number of animals with residual viable carcinoma >10 mm on slide” value in data set [1] (IV docetaxel, 2 animals) is given as 2. Also, in data set [6] (IV docetaxel Day 1 (10 mg/kg) and Day 11 (5 mg/kg)), the “tumor volume compared to vehicle” value was “No difference”. In addition, the “toxicity leading to modified administration schedule” value in [6] (mouse, in vivo, iv) is given as “systemic toxicity”. Besides, in data set [7], the “CD8 (% of CD45)” value was 0.75% and 0.5% and 0.28% and 0.31% (2×) and 0.061% and 0.32% and 0.45% and 0.81% and 0.33%; the “CD8 Count” value is 33 and 40 and 26 and 193 and 9 and 145 and 36 and 214 and 137 and 270; the “CD45 (% of Live)” value is 38.2% and 42.8% and 52.7% and 68.9% and 74.1% and 57.8% and 32.5% and 63.3% and 73% and 67.2%; the “CD45 Count” value was 4375 and 8052 and 9275 and 62614 and 14728 and 45332 and 8088 and 26310 and 41555 and 86029. Further, in data set [7], the “Conv CD4 (% of CD45)” value is 1.23% and 1.15% and 1.51% and 0.44% and 0.16% and 0.58% and 0.62% and 2.55% and 1.65% and 0.59%; the “Conv CD4 Count” value was 54 and 93 and 140 and 275 and 23 and 265 and 50 and 670 and 687 and 509; the “Live Count” value is 11443 and 18796 and 17590 and 90940 and 19863 and 78365 and 24901 and 41595 and 56947 and 128055; the “M1 Mac (% of CD45)” value was 10.5% and 6.97% and 8.59% and 8.44% and 3.34% and 9.16% and 8.65% and 7.47%. Further, in data set [7], the “M1 Mac Count” value was 460 and 561 and 797 and 5285 and 492 and 4154 and 700 and 3186 and 5446 and 6428; the “M2 Mac (% of CD45)” value is 28% and 25.2% and 18.6% and 25.3% and 2.66% and 54.1% and 8.62% and 26.9% and 52.8% and 67.2%; the “M2 Mac Count” value was 1223 and 2030 and 1727 and 15846 and 392 and 24543 and 697 and 7074 and 21953 and 57825; the “MDSC (% of CD45)” value is 25.1% and 32.8% and 42.5% and 44% and 83.3% and 20% and 70.4% and 37.3% and 10.4%. Also, in data set [7], the “MDSC Count” value was 1098 and 2644 and 3940 and 27578 and 12265 and 9063 and 5696 and 9821 and 4302 and 11067; the “Treg (% of CD45)” value was 1.58% and 0.55% and 0.32% and 0.62% and 0.16% and 0.54% and 0.21% and 1.05% and 0.42% and 0.6%; the “Treg Count” value was 69 and 44 and 30 and 386 and 23 and 244 and 17 and 276 and 176 and 520. The “tumor growth compared to vehicle control” value in [8] is reported as “partial tumor growth inhibition”.

Take `CC(=O)O[C@H]1C(=O)[C@@]2(C)[C@H]([C@H](OC(=O)c3ccccc3)[C@]3(O)C[C@H](OC(=O)[C@H](O)[C@@H](NC(=O)c4ccccc4)c4ccccc4)C(C)=C1C3(C)C)[C@]1(OC(C)=O)CO[C@@H]1C[C@@H]2O` [paclitaxel]: the “solubility in the receptor fluid” value in data set [9] is around 0.4 µg/mL (≈ 0.468 µM).
